# Test results published in patent US20110071163A1, “USE OF AN OPIOID RECEPTOR ANTAGONIST FOR THE TREATMENT OR PREVENTION OF GASTROINTESTINAL TRACT DISORDERS” (ADOLOR CORPORATION, priority 2009, published 2011).
# pKi: −log10 of the molar value. Values joined by “and” are separate entries in the source; they are usually repeats but may differ in a detail not shown here. Identical values can stand only once. “Also recorded” adds a separate entry of the source. Like-named read-outs stand apart in the source and are kept apart here.
# Columns and labels:
# [1] = system: P-glycoprotein (P-gp) transporter; assay: Partitioning in plasma and brain of wild-type and P-glycoprotein knockout mice; format: in vivo
# Description: Wild-type or P-glycoprotein (P-gp) knockout mice were dosed with 2.5 mg/kg of Compound I intravenously. The mice were sacrificed and the amounts of Compound I in the blood and in the brain were assayed using standard techniques. […] Moreover, blood-brain barrier penetration of Compound I increased 7- to 19-fold in knockout mice that were deficient in the P-gp transporter.
# [2] = Phase 1 oral pharmacokinetics of Compound I in healthy subjects; format: in vivo, human; settings: for Mean free Cmax plasma level: 1 mg single oral dose, healthy subjects
# Description: (§1) The first approach was a calculation based on comparison of pharmacokinetic and pharmacological data for the highly peripheralized opioid receptor antagonist alvimopan. […] Webster et al. (2008) Pain 137:428-440.
# If there is a potential for a degree of drug accumulation upon repeated dosing regimens, the doses associated with efficacy for treating OIC or OBD may be appreciably lower than the doses calculated above, i.e., as low as 0.01 to 0.02 mg whole body dose QD or BID (for a human weighing approximately 70 kg).
# [3] = Plasma protein binding (human); format: in vitro ADME; settings: read-out: Plasma protein binding (% free drug)
# [4] = system: opioid receptors in the central nervous system; assay: Rat formalin test: reversal of morphine analgesia; format: in vivo; settings: for Potency of naltrexone relative to Compound I in reversing the effects of morphine in the CNS: morphine 10 mg/kg s.c., naltrexone s.c., Compound I oral
# Description: Rats were injected with the irritant formalin and with 10 mg/kg of morphine subcutaneously. The amount of analgesia was determined by the reduction in the number of times the rat licked or paid attention to the site of formalin injection (events). Rats were dosed either with 0.02 mg/kg naltrexone (subcutaneous dose) or 1, 3 or 10 mg/kg Compound I (oral dose) to determine the ability of the compounds to reverse the analgesic effect of morphine. […] The reversal of morphine-induced analgesia by opioid receptor antagonists in the formalin test is believed to be primarily a centrally-mediated effect.
# opioid receptors = assay: Reversal of morphine-induced inhibition of gastrointestinal transit of charcoal meal in mice; format: in vivo; settings: Compound I oral dose
# Description: Mice were either dosed with 10 μg/kg morphine intracerebroventricularly or with 1 mg/kg morphine subcutaneously. The degree of gastrointestinal transit of charcoal meal in the mice was measured in the absence of Compound I and in the presence of varying oral doses of Compound I in order to determine the ability of the compound to reverse the inhibition of gastrointestinal (GI) transit induced by morphine. The minimum effective dose of Compound I required to reverse GI transit inhibition in mice dosed with morphine directly into the CNS was determined to be about 3.0 mg/kg oral dose. (FIG. 2) In contrast, the effective dose of Compound I required to reverse GI transit inhibition in mice dosed with morphine systemically was determined to be about 0.16 mg/kg oral dose.
# [5] = Plasma protein binding (mouse); format: in vitro ADME; settings: read-out: Plasma protein binding (% free drug)
# [6] = Oral bioavailability in rat; format: in vivo
# [7] = target: T1, cloned human μ-opioid receptors (Homo sapiens, UniProt P35372); assay: In vitro receptor binding in CHO cell membranes; settings: CHO cell membranes expressing cloned human μ-opioid receptors
# T1 construct: expressed in transfected cells; host or cells: CHO cells (membranes)
# μ-opioid receptor = target: T2, μ-opioid receptor (Homo sapiens, UniProt P35372); assay: Calculated effective dose and pharmacokinetic model of Compound I for treating OIC or OBD; settings: humans
# T2 construct: expressed in transfected cells; host or cells: CHO cells (membranes)
# Text: (§2) There are a number of approaches to determining the effective dose of Compound I for treating OIC or OBD. Four are outlined below. Depending on the approach, a number of basic assumptions were made in calculating the effective dose of Compound I for treating OIC or OBD: (i) The μ-opioid receptor is the primary target of Compound I to produce efficacy in the treatment of OIC or OBD, although other opioid receptors may also play a role. (ii) The systemic presence of Compound I in the periphery (but not in the CNS) is sufficient to produce robust efficacy in treating OIC or OBD. Thus, calculations were based on systemic plasma concentrations as opposed to possible topical or local effects in gut tissues, though these may also contribute to efficacy. (iii) The pharmacokinetic properties, specifically the oral bioavailability, of Compound I will be roughly similar in healthy volunteers and in patients with OIC or OBD.
# as §1
# A second approach was a calculation based on the potency (Ki) of Compound I as an antagonist for the […] receptor.
# A third approach was to generate a pharmacokinetic model for Compound I at low doses. This was accomplished by assuming a linear relationship between dose and all parameters of the plasma time course for the 1 mg dose of Compound I, and extrapolating these to lower doses.
# [8] = Phase I multiple ascending dose clinical study in subjects with OIC; format: in vivo, human
# Text: The objective of the Phase I multiple ascending dose clinical study was to evaluate the safety, tolerability, pharmacokinetics, and clinical effect of multiple ascending doses of Compound I administered twice daily (BID) to subjects who have opioid induced constipation (OIC) as a result of chronic opioid therapy for persistent noncancer pain. The first part of the study was a randomized, double blind, placebo controlled, multiple ascending dose study during which subjects took 4 oral doses of study medication over 2 days while confined to the study unit. Each of the 0.10 mg, 0.25 mg, 0.35 mg, 0.50 mg […] BID dose cohorts included 4 subjects, and randomization was unbalanced, with a 3:1 ratio of Compound I treatment (n=3) to placebo treatment (n=1). The 0.75 mg BID cohort included only 2 subjects. Assessments of clinical effect included the following measures, which were assessed starting immediately after the first dose of study medication through discharge on day 3: (i) time to first bowel movement after the first dose of study medication; (ii) number of bowel movements; and (iii) bowel movement Comfort Scores, stool weight, and stool consistency as measured by the Bristol Stool Scale for each bowel movement that occurs while the subject was confined to the study unit.
# For pharmacokinetic analyses, blood samples were collected from each subject on day 1 at approximately 1 hour before the first dose of study medication (time 0) and at each of the following times after the first dose of study medication: 15 min, 30 min, 60 min, 90 min, 2 h, 3 h, 4 h, 6 h, 8 h, 10 h, and 12 h. FIGS. 7A, 7B and 7C indicate the plasma levels of Compound I obtained after the first dose over the dosing interval of 12 h and for each of the 5 doses tested (0.10 mg, 0.25 mg, 0.35 mg, 0.50 mg and 0.75 mg BID).
# [9] = system: opioid receptors in the CNS; assay: Phase 1 pharmacodynamic markers of central opioid receptor antagonism (morphine-induced miosis, ACTH, cortisol); format: in vivo, human; settings: humans
# Description: Determination of the lowest dose of Compound I that produces antagonism of opioid receptors in the CNS was addressed directly by examining the reported effect of Compound I on pharmacodynamic markers of central opioid receptor antagonism that were measured in the single and multiple dose Phase 1 clinical studies, i.e., the reversal of morphine-induced miosis (the effect on pupil diameter) and increases in adrenocorticotropic hormone (ACTH) and cortisol. The observed whole body dose of Compound I associated with a threshold reversal of morphine-induced miosis was 10 mg. Likewise, the observed whole body dose of Compound I associated with threshold increases in ACTH and cortisol was between 10 and 25 mg. A conservative estimate of the whole body dose for central opioid receptor antagonism was then determined by reducing these observed threshold doses by a half-log factor (i.e., 3-fold). Thus, the minimum doses of Compound I associated with pharmacologically relevant antagonism of opioid receptors in the CNS were conservatively estimated to be in the range of from about 3 mg to about 10 mg.
# [10] = Oral bioavailability in cynomologus monkey; settings: in vivo, 0.1 mg/kg to 0.5 mg/kg
# Text: as §2
# [11] = 0.5 mg BID, patients with OIC or OBD, Phase 2 (Webster et al. 2008), cited from earlier work
# [12] = 0.10 mg and 0.25 mg doses, preliminary
# T2 sequence (P35372 whole entry): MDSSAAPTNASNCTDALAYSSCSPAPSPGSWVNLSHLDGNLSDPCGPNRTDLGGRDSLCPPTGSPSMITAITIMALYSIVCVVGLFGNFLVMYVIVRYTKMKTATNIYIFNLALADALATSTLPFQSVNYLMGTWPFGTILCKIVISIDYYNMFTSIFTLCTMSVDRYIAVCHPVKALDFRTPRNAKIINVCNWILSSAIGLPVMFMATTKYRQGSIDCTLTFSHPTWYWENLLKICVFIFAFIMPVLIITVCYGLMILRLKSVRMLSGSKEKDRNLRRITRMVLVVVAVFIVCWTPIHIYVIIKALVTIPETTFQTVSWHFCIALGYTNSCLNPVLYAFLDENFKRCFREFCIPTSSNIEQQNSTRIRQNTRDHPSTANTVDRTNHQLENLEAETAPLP
# T1 sequence (P35372 whole entry): as above
smiles,measurement,setting,value
"COc1cc(CNCCC2CCOCC2)ccc1Oc1cnc(C(N)=O)cn1 [Compound I, 5-(2-methoxy-4-{[2-(tetrahydro-pyran-4-yl)-ethylamino]-methyl}-phenoxy)-pyrazine-2-carboxamide]",P-gp transport,[1]; concluded from knockout mice,substrate for the efflux transporter P-gp
same,Compound I in blood plasma relative to brain,"[1]; wild type mice, 2.5 mg/kg intravenously",17 times
same,Mean free Cmax plasma level,[2]; converted with MW 386.4 g/mol,2.98 nM
same,Mean free Cmax plasma level,[2]; free drug estimated with mouse plasma protein binding,1.15 ng/ml and 1.15^2 ng/ml
same,half-life,"[2]; human, plasma, oral, humans, doses of 1-3 mg",~720 min
same,Oral pharmacokinetics versus dose,"[2]; humans, dose range 1 mg to 100 mg",highly consistent and dose-proportional
same,fraction unbound,[3],0.738
same,Times less potent than naltrexone as antagonist of opioid receptors in the central nervous system,[4],at least 100 times
same,Minimum effective dose to reverse GI transit inhibition,opioid receptors; morphine 10 μg/kg intracerebroventricularly (direct CNS),about 3.0 mg/kg
same,Effective dose to reverse GI transit inhibition,opioid receptors; morphine 1 mg/kg subcutaneously (systemic),about 0.16 mg/kg
same,fraction unbound,[5],0.64
same,Oral bioavailability,[6],high oral bioavailability
same,pKi,[7],9.44
same,Whole body dose effective in treating OIC or OBD without antagonizing CNS μ-opioid receptors (calculated),"μ-opioid receptor; QD or BID, multiple rationales",approximately 0.1 mg/day
same,Whole body dose needed to achieve 0.36 nM of free drug (second approach),μ-opioid receptor; linear extrapolation,0.12 mg
same,Dose needed to produce a free drug plasma Cmax of 0.1 ng/ml,μ-opioid receptor; linear extrapolation below 1 mg,0.087 mg
same,Amount effective for treating OIC or OBD confirmed in Phase I clinical studies,[8],approximately 0.1 mg/day
same,Pharmacological effect,[8]; [12],produced the desired pharmacological effects
same,Tolerability,[8]; [12],well-tolerated; also recorded: well tolerated
same,Whole body dose associated with threshold reversal of morphine-induced miosis,[9],10 mg
same,bioavailability,[10],~100%
O=C1CC[C@@]2(O)[C@H]3Cc4ccc(O)c5c4[C@@]2(CCN3CC2CC2)[C@H]1O5 [naltrexone],Potency of naltrexone relative to Compound I in reversing the effects of morphine in the CNS,[4],more than 100 times
same,Potency of naltrexone relative to Compound I in reversing the effects of morphine in the CNS,[4]; listed as Naltrexone,approximately 100 times
"C[C@H]1CN(C[C@H](Cc2ccccc2)C(=O)NCC(=O)O)CC[C@@]1(C)c1cccc(O)c1 [Alvimopan, alvimopan]",fraction unbound,[3],0.203
same,Mean free Cmax plasma level,[11],0.1^1 ng/ml
same,Mean free Cmax plasma level,[11]; listed as alvimopan,approximately 0.1 ng/ml
